In PubChem BioAssay AID1963837 (Molecular Pharmacology Branch, DTP, NCI, 2024):
Values joined by “and” are separate entries in the source; they are usually repeats but may differ in a detail not shown here. Identical values can stand only once.

Test system: 843126-344-R-J1-PDC complex spheroid viability
Assay: Anticancer human tumor 843126-344-R-J1-PDC patient-derived melanoma cell line growth inhibition [POLQ]
Details: for viability, T/C: stronger effect = lower value
Protocol: Multicellular complex tumor spheroid response to Polymerase (POL) inhibitors (novobiocin, ART-558, RP6685) in combination with a variety of drugs and investigational agents in selected tumor cell lines
The POL inhibitors (novobiocin, ART-558, and RP6685) were evaluated both individually and in combination with standard of care and investigational anticancer small molecules within a complex spheroid model of solid tumors. . Complex spheroids include a stromal component modeled by human endothelial cells (HUVEC) and fibroblasts modeled by human mesenchymal stem cells (MSCs). The concentration ranges selected for each drug and investigational agent were based upon clinically achievable concentrations if the clinical Cmax of the agent was known.
Compounds. The drugs and investigational agents: novobiocin (NSC847541), ART-558 (NSC835418), RP-6685 (NSC848927), peposertib (NSC802822), ceralasertib (NSC780249), elimusertib (NSC800525), camonsertib (NSC841442), AZD-1390 (NSC803789), olaparib (NSC753686), talazoparib (NSC767125), rucaparib (NSC756644), sotorasib (NSC818433), MRTX-1133 (NSC836407), SN-38 (NSC673596), topotecan (NSC609699), epotoside (NSC141540), doxorubicin (NSC123127), gemcitabine (NSC613327), 5-fluorouracil (NSC19893), paclitaxel (NSC125973), vemurafenib (NSC761431), MSA-2 (NSC828583), SN-011 (NSC837082), adavosertib (NSC754352), prexasertib (NSC758257), carboplatin (NSC241240) and oxaliplatin (NSC266046), were obtained from the National Cancer Institute (NCI) Developmental Therapeutics Program Chemical Repository (21). The FDA-approved anticancer drug set is available from the Developmental Therapeutics Program at https://dtp.cancer.gov/organization/dscb/obtaining/. […] The stock solutions were prepared in dimethyl sulfoxide (DMSO, Sigma-Aldrich, St. Louis, MO, cat. D2650), except for the platinum compounds which were prepared in saline (Quality Biological, Gaithersburg, MD, cat. 114-055-101), at 800-fold the tested concentration and stored at -70 degrees C prior to their use. All drugs and investigational agents were tested over a range starting from a high concentration at or near the clinical Cmax and decreasing in half-log increments. If the clinical Cmax for an agent had not been determined, the highest concentration tested was 10 microM, except for SN-38, which was tested at a high concentration of 1 microM.
Cell Culture. All cells were maintained in an incubator at 37 degrees C and 5% CO2 with 95% humidity. The PDC lines were cultured according to standard operating procedures established by the NCI PDMR (https://pdmr.cancer.gov). Table 3 of the manuscript, lists the cell lines along with the number of the three cell types plated to form the mct-spheroids and media for tumor cell growth. After thawing, all PDC lines, except 997537-175-T-J1-PDC and 415267-285-R-J2-PDC, were cultured in Matrigel-coated flasks prepared with a working solution of 1X Ham's F-12 nutrient mix, without supplementation (Thermo Fisher Scientific, cat. 11765054), 100 U/mL penicillin-streptomycin (Thermo Fisher Scientific, cat. 15140122), and 2.5% Matrigel (Corning Inc., Corning, NY, cat. 354248) for the first three passages. The two PDC lines 997537-175-T-J1-PDC and 415267-285-R-J2-PDC were cultured on uncoated flasks. The 857933-349-R-J2-PDC line was cultured in 6C/Colon 1B media containing advanced DMEM/F-12 (Thermo Fisher Scientific, cat. 12634028), 10 mM HEPES (Thermo Fisher Scientific, cat. 15630080), 1X GlutaMAX supplement (Thermo Fisher Scientific, cat. 35050061), 0.1 mg/mL primocin (InvivoGen, San Diego, CA, cat. ant-pm-2), 10% defined fetal bovine serum, heat inactivated (HyClone Laboratories Inc., Logan, UT, cat. SH30070.03HI), 50% L-WRN conditioned media (ATCC, cat. CRL-3276), 1.25 mM N-Acetyl-L-cysteine (Sigma-Aldrich, cat. A9165), 10 mM nicotinamide (Sigma-Aldrich, cat. N0636), 1X B-27 supplement (Thermo Fisher Scientific, cat. 17504044), 1X N-2 supplement (Thermo Fisher Scientific, cat. […]
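For viability, T/C in this document: spheroids exposed to drugs for seven days before readout.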

With `CCCS(=O)(=O)Nc1ccc(F)c(C(=O)c2c[nH]c3ncc(-c4ccc(Cl)cc4)cc23)c1F` + COC1C(OC(N)=O)C(O)C(Oc2ccc3c(O)c(NC(=O)c4ccc(O)c(CC=C(C)C)c4)c(=O)oc3c2C)OC1(C)C the IC50 (curve of first compound, second compound 0.0316 µM) was over 10 µM, the IC50 (curve of first compound, second compound 0.1 µM) was over 10 µM and the IC50 (curve of first compound, second compound 0.316 µM) was over 10 µM. For the same compound, the IC50 (curve of first compound, second compound 1 µM) was over 10 µM, the IC50 (curve of first compound, second compound 3.16 µM) was over 10 µM and the IC50 (curve of first compound, second compound 10 µM) was over 10 µM. For the same compound, the viability, T/C (second compound 0.0316 µM, first compound 0.0316 µM) was 88.8%, the viability, T/C (second compound 0.0316 µM, first compound 0.1 µM) was 87.5% and the viability, T/C (second compound 0.0316 µM, first compound 0.316 µM) was 62.7%. It also gave a viability, T/C (second compound 0.0316 µM, first compound 1 µM) of 72.9%, a viability, T/C (second compound 0.0316 µM, first compound 3.16 µM) of 75.6% and a viability, T/C (second compound 0.0316 µM, first compound 10 µM) of 60%. For the same compound, the viability, T/C (second compound 0.1 µM, first compound 0.0316 µM) was 77.5%, the viability, T/C (second compound 0.1 µM, first compound 0.1 µM) was 81.7% and the viability, T/C (second compound 0.1 µM, first compound 0.316 µM) was 84.5%. The viability, T/C (second compound 0.1 µM, first compound 1 µM) was 64.5%, the viability, T/C (second compound 0.1 µM, first compound 3.16 µM) was 72.5% and the viability, T/C (second compound 0.1 µM, first compound 10 µM) was 72.5%. It also gave a viability, T/C (second compound 0.316 µM, first compound 0.0316 µM) of 78.5%, a viability, T/C (second compound 0.316 µM, first compound 0.1 µM) of 97.1% and a viability, T/C (second compound 0.316 µM, first compound 0.316 µM) of 86.3%. For the same compound, the viability, T/C (second compound 0.316 µM, first compound 1 µM) was 70.5%, the viability, T/C (second compound 0.316 µM, first compound 3.16 µM) was 71.7% and the viability, T/C (second compound 0.316 µM, first compound 10 µM) was 70.8%. For the same compound, the viability, T/C (second compound 1 µM, first compound 0.0316 µM) was 82.2%, the viability, T/C (second compound 1 µM, first compound 0.1 µM) was 98.2% and the viability, T/C (second compound 1 µM, first compound 0.316 µM) was 80.4%. For the same compound, the viability, T/C (second compound 1 µM, first compound 1 µM) was 87.6%, the viability, T/C (second compound 1 µM, first compound 3.16 µM) was 65.5% and the viability, T/C (second compound 1 µM, first compound 10 µM) was 65%. For the same compound, the viability, T/C (second compound 3.16 µM, first compound 0.0316 µM) was 92.1%, the viability, T/C (second compound 3.16 µM, first compound 0.1 µM) was 77.9% and the viability, T/C (second compound 3.16 µM, first compound 0.316 µM) was 91.2%. The viability, T/C (second compound 3.16 µM, first compound 1 µM) was 72.6%, the viability, T/C (second compound 3.16 µM, first compound 3.16 µM) was 77.9% and the viability, T/C (second compound 3.16 µM, first compound 10 µM) was 77.2%. For the same compound, the viability, T/C (second compound 10 µM, first compound 0.0316 µM) was 83.2%, the viability, T/C (second compound 10 µM, first compound 0.1 µM) was 106% and the viability, T/C (second compound 10 µM, first compound 0.316 µM) was 83.2%. It also gave a viability, T/C (second compound 10 µM, first compound 1 µM) of 75.2%, a viability, T/C (second compound 10 µM, first compound 3.16 µM) of 75.3% and a viability, T/C (second compound 10 µM, first compound 10 µM) of 64.3%.

In the case of `CC(=O)O[C@H]1C(=O)[C@@]2(C)[C@H]([C@H](OC(=O)c3ccccc3)[C@]3(O)C[C@H](OC(=O)[C@H](O)[C@@H](NC(=O)c4ccccc4)c4ccccc4)C(C)=C1C3(C)C)[C@]1(OC(C)=O)CO[C@@H]1C[C@@H]2O`, the viability, T/C (compound 0.00949 µM) is reported as 65.3% and 60.5%, the viability, T/C (compound 0.03 µM) is reported as 54.6% and 53.3% and the viability, T/C (compound 0.0949 µM) is reported as 64.2% and 54.8%. For the same compound, the viability, T/C (compound 0.3 µM) was 75.2% and 57%, the viability, T/C (compound 0.949 µM) was 74.7% and 55.3% and the viability, T/C (compound 3 µM) was 76% and 66.8%. It also gave an IC50 (curve of compound) of over 3 µM.

For `CC[C@@]1(O)C(=O)OCc2c1cc1n(c2=O)Cc2cc3c(CN(C)C)c(O)ccc3nc2-1`, the viability, T/C (compound 0.000316 µM) was 84.4% and 108% and 96.4%, the viability, T/C (compound 0.001 µM) was 99.5% and 88.4% and 89.3% and the viability, T/C (compound 0.00316 µM) was 92.7% and 105% and 96.4%. The viability, T/C (compound 0.01 µM) was 88.6% and 93.8% and 85.1%, the viability, T/C (compound 0.0316 µM) was 73% and 63.1% and 67.9% and the viability, T/C (compound 0.1 µM) was 51.1% and 55.8% and 48.8%. For the same compound, the IC50 (curve of compound) was > 0.1 µM and 0.0933 µM.

For `COc1cc2cc(C(=O)CCC(=O)O)sc2cc1OC`, the viability, T/C (compound 0.0316 µM) was 87.3% and 78.3% and 95.9%, the viability, T/C (compound 0.1 µM) was 84.1% and 94.8% and 93.8% and the viability, T/C (compound 0.316 µM) was 94.1% and 97.4% and 110%. The viability, T/C (compound 1 µM) was 89.5% and 93.5% and 88.7%, the viability, T/C (compound 3.16 µM) was 86.9% and 84.8% and 98.1% and the viability, T/C (compound 10 µM) was 112% and 90.1% and 96.6%. It also gave an IC50 (curve of compound) of over 10 µM.

For `COc1ccc([C@@H](O)c2cc(-c3ncnc4cc(N5CCOCC5)ccc34)c(F)cc2Cl)nn1`, the viability, T/C (compound 0.0316 µM) was 103% and 80.6% and 95.7%, the viability, T/C (compound 0.1 µM) was 84.7% and 89.8% and 74.2% and the viability, T/C (compound 0.316 µM) was 92.1% and 102% and 93.4%. The viability, T/C (compound 1 µM) was 112% and 87.3% and 81.3%, the viability, T/C (compound 3.16 µM) was 86.4% and 73.3% and 59.9% and the viability, T/C (compound 10 µM) was 66.4% and 71.2% and 48.2%. The IC50 (curve of compound) was > 10 µM and 8.43 µM.

In the case of `O=C(c1cc(Cc2n[nH]c(=O)c3ccccc23)ccc1F)N1CCN(C(=O)C2CC2)CC1`, the viability, T/C (compound 0.0316 µM) is reported as 91.6% and 93.9% and 74.9%, the viability, T/C (compound 0.1 µM) is reported as 78.7% and 90% and 91.5% and the viability, T/C (compound 0.316 µM) is reported as 103% and 77.3% and 93.6%. For the same compound, the viability, T/C (compound 1 µM) was 74.1% and 76.7% and 83%, the viability, T/C (compound 3.16 µM) was 86.2% and 79.5% and 87.6% and the viability, T/C (compound 10 µM) was 81% and 72.1% and 82.1%. For the same compound, the IC50 (curve of compound) was over 10 µM.
